From article PMC10823733, “Promising antibacterial efficacy of arenicin peptides against the emerging opportunistic pathogen Mycobacterium abscessus” (Journal of Biomedical Science, 2024) come the findings set out here.

The CC50 is the concentration that lowers cell viability or growth by half. As usually defined, the HC50 is the concentration that lyses half of the red blood cells.

Like-named read-outs stand apart in the source and are kept apart here. Positions of bridges follow the written chain, without caps; N, C: chain ends. Non-standard residues stand in square brackets, D forms with d. Residues, ends and D or L forms follow the SMILES beside them. Abu = CC[C@H](N)C(=O)O Some results are limits rather than exact numbers.

In one data set the test system is A498 cells. Nature of the data set: Cytotoxic assay on human cells (resazurin). The format is cell-based. On the procedure: (§1) The toxicity of each peptide was evaluated on human cell lines using a resazurin assay as previously described. Human lung epithelial cells BEAS-2B (ATCC CRL-9609), liver cells HepG2 (ATCC HB-8065), and kidney cells A498 (ATCC HTB-44) were used. All cells were cultured in Dulbecco's modified essential medium (DMEM) supplemented with 10% heat-inactivated fetal calf serum (FBS, Thermo Fisher Scientific), and 1% L-glutamine (Thermo Fisher Scientific) (DMEM^FBS) at 37 °C in a 5% CO2 incubator to subconfluent concentrations. Cells were detached with trypsin–EDTA solution (Thermo Fisher Scientific), and around 1 × 10^4 cells/well were seeded in 96-well flat-bottom microplates (Greiner Bio-One) with a lid, and cultured for additional 48–72 h at 37 °C and 5% CO2 until cell confluence. The medium was removed, and 100 µL of serial two-fold dilutions of the peptides in DMEM^FBS were added to each well. Following a 48 h-incubation period at 37 °C and 5% CO2, cell viability was evaluated using the resazurin assay as described above. Fluorescence of the resazurin metabolite resorufin (λex/λem = 530/590 nm) was measured after 2 h incubation at 37 °C and 5% CO2 in the dark, with a microplate reader (Biotek, Synergy Mx, Colmar, France). The cytotoxic concentration of peptide leading to 50% cell death as compared to the control was defined as the CC50, and was determined by fitting the RFU% sigmoidal dose–response curves in Kaleidagraph 4.2 software (Synergy Software). All experiments were conducted in triplicate.

Data set [1] is classed as cell-based, human. On the procedure:
as §1

The format of data set [2] is cell-based, human. On the procedure: as §1
The source holds these as a separate data set.

Another data set concerns human erythrocytes. The class given is cell-based. The following applies: for HC10 / HC50: red cells of human, 1 h. On the procedure:
The hemolytic activity of each peptide was determined as previously described. Briefly, human erythrocytes (red blood cells, hRBC; Divbioscience, Ulvenhout, Netherlands) were washed 2-times with sterile phosphate buffered saline (PBS; Thermo Fisher Scientific) and pelleted by centrifugation at 800 rpm for 5 min; then resuspended in DMEM^FBS to a final erythrocyte concentration of 8% (v/v). Then, 100 µL of this hRBC solution was distributed to each well of sterile 96-well flat-bottom microplates (Greiner Bio-One) containing serial two-fold dilutions of arenicin, arenicin-Abu derivative or controls in DMEM^FBS to a final volume of 200 µL. After 1 h incubation at 37 °C, microplates were centrifuged at 800 rpm for 5 min. Then, 100 µL of supernatant were carefully transferred to a new 96-well microplate, and OD405 corresponding to the release of hemoglobin was measured using a microplate reader (Biotek, Synergy Mx, Colmar, France). DMEM^FBS and Triton-X100 at 0.1% (v/v) were used as negative (i.e., 0% hemolysis) and positive (i.e., 100% hemolysis) controls, respectively. The concentration of peptide leading to 10% and 50% of hemolysis compared to the positive control was defined as the HC10 and HC50, respectively, and was determined by fitting the dose–response curves in Kaleidagraph 4.2 software (Synergy Software). All experiments were done in triplicate.

The next data set relates to M. abscessus S and R. The class given is cell-based, Mycobacterium abscessus. On the procedure:
Mycobacterium abscessus S and R strains (CIP 104536^ T) were grown in Middlebrook 7H9 medium supplemented with 0.05% (v/v) Tween 80, 0.2% (v/v) glycerol and 10% (v/v) oleic acid–albumin–dextrose–catalase (OADC enrichment; BD Difco) (7H9-S^OADC) at 37 °C under stirring (200 rpm). We used Ar-1 (RWC^3VYAYVRVRGVLVRYRRC^20W) and Ar-1-Abu, in which the cysteines in position 3 and 20 were replaced by alpha-amino-n-butyric acid (Abu) residues. […]
For determining the antimicrobial activity of the different peptides, the Middlebrook 7H9 broth microdilution method was used in sterile 96-well flat-bottom Greiner Bio-One polypropylene microplates with lid (Thermo Fisher Scientific) using the resazurin microtiter assay (REMA). […] Fluorescence of the metabolite resorufin (λex/λem = 530/590 nm) was measured using a Tecan Spark 10 M ™ multimode microplate reader (Tecan Group Ltd, France). Relative fluorescence units (RFU) were defined as: RFU% = (test well FU/mean FU of control B wells) × 100. MIC50 and MIC90 values were determined by fitting the RFU% sigmoidal dose–response curves in Kaleidagraph 4.2 software (Synergy Software, Reading, PA). […]

A further data set relates to M. abscessus S. Nature of the data set: Induction of resistance assay. The format is cell-based, Mycobacterium abscessus. The following applies: after 20–30 days of exposure. On the procedure:
(§2) Induction of bacterial resistance by Ar-1 was achieved by exposure of M. abscessus S and R to Ar-1 or to the control antibiotic clarithromycin (CLR) for 42 consecutive days, and with repeated broth microdilution susceptibility testing and subsequent MIC determination. After each MIC determination, the well containing the highest concentration of Ar-1 or CLR that allows bacterial growth was diluted 1:1000 in 7H9-S^OADC and used as inoculum for the next MIC assay with fresh amounts of Ar-1 or CLR.

For another data set, the system named is M. abscessus R. Nature of the data set: Induction of resistance assay. The following applies: after 20–30 days of exposure. The class given is cell-based, Mycobacterium abscessus. On the procedure: as §2

Turning to `CC[C@H](NC(=O)[C@H](CCCNC(=N)N)NC(=O)[C@H](CCCNC(=N)N)NC(=O)[C@H](Cc1ccc(O)cc1)NC(=O)[C@H](CCCNC(=N)N)NC(=O)[C@@H](NC(=O)[C@H](CC(C)C)NC(=O)[C@@H](NC(=O)CNC(=O)[C@H](CCCNC(=N)N)NC(=O)[C@@H](NC(=O)[C@H](CCCNC(=N)N)NC(=O)[C@@H](NC(=O)[C@H](Cc1ccc(O)cc1)NC(=O)[C@H](C)NC(=O)[C@H](Cc1ccc(O)cc1)NC(=O)[C@@H](NC(=O)[C@H](CC)NC(=O)[C@H](Cc1c[nH]c2ccccc12)NC(=O)[C@@H](N)CCCNC(=N)N)C(C)C)C(C)C)C(C)C)C(C)C)C(C)C)C(=O)N[C@@H](Cc1c[nH]c2ccccc12)C(=O)O` [Ar-1-Abu] (H-RW[Abu]VYAYVRVRGVLVRYRR[Abu]W-OH), the “toxicity towards kidney A498 cells (in words)” value with A498 cells is recorded as “nontoxic”. Besides, the CC50 in data set [1] is > 100 µM. Besides, in data set [2], the CC50 was > 100 µM. In the data set with human erythrocytes, the “hemolytic activity on human erythrocytes (in words, considering HC10)” value was “totally inactive”; the HC10 is > 100 µM; the HC50 was > 100 µM.
As for `CC(C)C[C@@H]1NC(=O)[C@H](C(C)C)NC(=O)CNC(=O)[C@H](CCCNC(=N)N)NC(=O)[C@H](C(C)C)NC(=O)[C@H](CCCNC(=N)N)NC(=O)[C@H](C(C)C)NC(=O)[C@H](Cc2ccc(O)cc2)NC(=O)[C@H](C)NC(=O)[C@H](Cc2ccc(O)cc2)NC(=O)[C@H](C(C)C)NC(=O)[C@@H](NC(=O)[C@H](Cc2c[nH]c3ccccc23)NC(=O)[C@@H](N)CCCNC(=N)N)CSSC[C@@H](C(=O)N[C@@H](Cc2c[nH]c3ccccc23)C(=O)O)NC(=O)[C@H](CCCNC(=N)N)NC(=O)[C@H](CCCNC(=N)N)NC(=O)[C@H](Cc2ccc(O)cc2)NC(=O)[C@H](CCCNC(=N)N)NC(=O)[C@H](C(C)C)NC1=O` [Ar-1] (H-RWCVYAYVRVRGVLVRYRRCW-OH; disulfide 3-20), the “mean MIC50” value with M. abscessus S and R is 11.5 ± 1.0 µM. For the same compound, the “toxicity towards kidney A498 cells (in words)” value in the data set with A498 cells was “nontoxic”. For the same compound, the CC50 in data set [1] was > 100 µM. The CC50 in data set [2] was > 100 µM. For the same compound, in the data set on human erythrocytes, the HC10 came to 20.2 ± 1.8 µM and the HC50 was > 100 µM.
With `CC[C@H]1OC(=O)[C@H](C)[C@@H](O[C@H]2C[C@@](C)(OC)[C@@H](O)[C@H](C)O2)[C@H](C)[C@@H](O[C@@H]2O[C@H](C)C[C@H](N(C)C)[C@H]2O)[C@](C)(OC)C[C@@H](C)C(=O)[C@H](C)[C@@H](O)[C@]1(C)O` [CLR, clarithromycin], the “increase in MIC90 values” in the data set with M. abscessus S and in the data set with M. abscessus R was 32 fold each time.
